TGI data for 10 compounds are collected here from PubChem BioAssay (NCI).

Some test systems named below: ACHN renal; CAKI-1 renal; CCRF-CEM leukemia; HOP-62 NSCLC; HT29 colon; IGROV1 ovarian; K-562 leukemia; MDA-MB-435; NCI/ADR-RES ovarian; OVCAR-3 ovarian; SF-268 CNS; SK-OV-3 ovarian; T-47D breast; U251 CNS; HL-60(TB) leukemia; HOP-92 NSCLC; NCI-H522 lung.
What all share (assay): NCI-60 cell line screen, 48 h

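Tested at 5 concentrations; 48 h exposure; 96-well plates; endpoints linearly interpolated, else capped at highest concentration. Definition used: TGI = concentration required for complete inhibition of growth.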

On to `COC(=O)C1(CCCCl)CCCN1C(=O)OC(C)(C)C` (stereo not drawn), for which the TGI with ACHN renal, in the assay with CAKI-1 renal, in the assay on CCRF-CEM leukemia, with HOP-62 NSCLC, in the assay on HT29 colon and in the assay on IGROV1 ovarian was more than 100 µM each time. The TGI with K-562 leukemia, in the assay with MDA-MB-435, in the assay with NCI/ADR-RES ovarian, in the assay on OVCAR-3 ovarian, with SF-268 CNS and in the assay on SK-OV-3 ovarian was more than 100 µM throughout. Besides, the TGI in the assay with T-47D breast and in the assay on U251 CNS was more than 100 µM each time.
Regarding `CCCN1C(=O)CN(S(=O)(=O)c2ccc(Cl)cc2)C1=O`, the TGI with ACHN renal, in the assay on CAKI-1 renal, in the assay with CCRF-CEM leukemia, in the assay on HL-60(TB) leukemia, in the assay with HOP-62 NSCLC and in the assay on HOP-92 NSCLC was more than 100 µM each time. Further, the TGI in the assay on HT29 colon, in the assay with IGROV1 ovarian, in the assay with K-562 leukemia, with MDA-MB-435, with NCI-H522 lung and with OVCAR-3 ovarian was more than 100 µM each time. Besides, the TGI in the assay with SF-268 CNS, with SK-OV-3 ovarian, with T-47D breast and in the assay on U251 CNS was more than 100 µM throughout.
As to `C/C=C1/C=CC2c3[nH]c4ccccc4c3CCN2C1` (stereo not drawn), the TGI in the assay with ACHN renal, in the assay on CAKI-1 renal, with CCRF-CEM leukemia, in the assay with HL-60(TB) leukemia, with HOP-62 NSCLC and with HOP-92 NSCLC was more than 400 µM each time. For the same compound, the TGI in the assay on HT29 colon, in the assay with IGROV1 ovarian, in the assay with K-562 leukemia, in the assay on NCI-H522 lung, with OVCAR-3 ovarian and in the assay on SF-268 CNS was more than 400 µM each time. For the same compound, the TGI in the assay on SK-OV-3 ovarian and in the assay with U251 CNS was more than 400 µM throughout.
For `Cc1csc(=Nc2ccccc2)n1CCC(O)(P(=O)(O)O)P(=O)(O)O`, the TGI in the assay on ACHN renal, in the assay on CAKI-1 renal, with HOP-62 NSCLC, in the assay on HT29 colon, with IGROV1 ovarian and with NCI-H522 lung was more than 100 µM in each case. Further, the TGI in the assay with NCI/ADR-RES ovarian, in the assay with OVCAR-3 ovarian, in the assay with SF-268 CNS and in the assay with SK-OV-3 ovarian was more than 100 µM throughout.
`CN(CC(=O)Nc1ccccc1C(=O)O)c1ccccc1`: the TGI with ACHN renal, in the assay on CAKI-1 renal, with CCRF-CEM leukemia, in the assay on HL-60(TB) leukemia, with HOP-62 NSCLC and with HOP-92 NSCLC was more than 100 µM each time. Moreover, the TGI with HT29 colon, in the assay on IGROV1 ovarian, in the assay with K-562 leukemia, with NCI-H522 lung, with OVCAR-3 ovarian and in the assay on SF-268 CNS was more than 100 µM each time. The TGI with T-47D breast and with U251 CNS was more than 100 µM in each case.
As for `CCOC(OCC)(OCC)C(Br)CC` (stereo not drawn), the TGI in the assay with ACHN renal, in the assay with CAKI-1 renal, in the assay on CCRF-CEM leukemia, in the assay on HL-60(TB) leukemia, with HOP-62 NSCLC and with HOP-92 NSCLC was more than 100 µM throughout. Besides, the TGI in the assay with HT29 colon, in the assay on IGROV1 ovarian, in the assay on K-562 leukemia, in the assay with NCI-H522 lung, in the assay with OVCAR-3 ovarian and with SF-268 CNS was more than 100 µM throughout. The TGI in the assay on SK-OV-3 ovarian and in the assay on U251 CNS was more than 100 µM throughout.
In the case of `Cc1cc(C=O)c2c(=O)c3c(O)ccc(/C=C/C(C)C)c3oc2c1`, the TGI is more than 100 µM in the assay on ACHN renal; more than 100 µM with CAKI-1 renal; 59.4 µM with HL-60(TB) leukemia; more than 100 µM with HOP-62 NSCLC; more than 100 µM in the assay with HOP-92 NSCLC; more than 100 µM in the assay on HT29 colon. Further, the TGI is more than 100 µM in the assay on IGROV1 ovarian; more than 100 µM with K-562 leukemia; 74 µM with NCI-H522 lung; more than 100 µM with OVCAR-3 ovarian; more than 100 µM in the assay on SF-268 CNS; more than 100 µM with U251 CNS.
Take `Cc1cc2nnn(C3CCCCO3)c2cc1C` (stereo not drawn): the TGI with ACHN renal, with CAKI-1 renal, with CCRF-CEM leukemia, with HOP-62 NSCLC, in the assay with HT29 colon and in the assay on IGROV1 ovarian was more than 100 µM throughout. Also, the TGI with K-562 leukemia, in the assay on MDA-MB-435, in the assay on NCI-H522 lung, in the assay on NCI/ADR-RES ovarian, in the assay on OVCAR-3 ovarian and in the assay with SK-OV-3 ovarian was more than 100 µM throughout. The TGI in the assay with T-47D breast and with U251 CNS was more than 100 µM throughout.
For the compound `O=C(c1c(F)c(F)c(F)c(F)c1F)n1c(=S)n(C(=O)c2c(F)c(F)c(F)c(F)c2F)c2ccccc21`, the TGI with ACHN renal is more than 100 µM; with CCRF-CEM leukemia it was 49.9 µM; in the assay on HL-60(TB) leukemia, 45.6 µM; in the assay with HOP-62 NSCLC, more than 100 µM; with HOP-92 NSCLC it was more than 100 µM; with HT29 colon it was more than 100 µM. Moreover, the TGI is more than 100 µM in the assay on IGROV1 ovarian; 51.5 µM with K-562 leukemia; more than 100 µM with SF-268 CNS; more than 100 µM with SK-OV-3 ovarian; more than 100 µM with T-47D breast; more than 100 µM in the assay with U251 CNS.
For `CCCCCCC1OC23OC1CCC2C(O)CCC3O` (stereo not drawn), the TGI in the assay on ACHN renal, in the assay on CAKI-1 renal, with HL-60(TB) leukemia, in the assay on HOP-62 NSCLC, in the assay with HT29 colon and in the assay with IGROV1 ovarian was more than 100 µM in each case. For the same compound, the TGI with K-562 leukemia, in the assay with MDA-MB-435, in the assay on NCI-H522 lung, with NCI/ADR-RES ovarian, in the assay with OVCAR-3 ovarian and in the assay on SF-268 CNS was more than 100 µM each time. For the same compound, the TGI with U251 CNS is more than 100 µM.
